Experimental data from ChEMBL document CHEMBL1201862, “PubChem BioAssay data set” (2004).
The source made the active and inactive calls.

Experiments:
[1] = molecular target: Luciferin 4-monooxygenase (Photinus pyralis, UniProt P08659); experiment: inhibition of purified Photinus pyralis luciferase – biochemical, luminescence, dose response (AID 1891)
[2] = Luminescence Cell-Based Dose Confirmation HTS to Identify Inhibitors of Platelet Dense Granule Release. [Related pubchem assays: 1663 (Primary HTS), 1678 (Summary of Project)]; format: functional
[3] = molecular target: T1, Heat shock factor protein 1 (Mus musculus, UniProt P38532); experiment: decrease of HSF1-responsive luciferase luminescence – cell-based, NIH3T3, dose retest, confirmation (AID 2382); format: functional;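 note: NIH3T3 fibroblasts with HSF1-driven luciferase reporter stressed by proteasome inhibitor MG132; luminescence from HSF1-driven luciferase expression after 8 hours of MG132 stress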
T1 sequence (P38532 whole entry): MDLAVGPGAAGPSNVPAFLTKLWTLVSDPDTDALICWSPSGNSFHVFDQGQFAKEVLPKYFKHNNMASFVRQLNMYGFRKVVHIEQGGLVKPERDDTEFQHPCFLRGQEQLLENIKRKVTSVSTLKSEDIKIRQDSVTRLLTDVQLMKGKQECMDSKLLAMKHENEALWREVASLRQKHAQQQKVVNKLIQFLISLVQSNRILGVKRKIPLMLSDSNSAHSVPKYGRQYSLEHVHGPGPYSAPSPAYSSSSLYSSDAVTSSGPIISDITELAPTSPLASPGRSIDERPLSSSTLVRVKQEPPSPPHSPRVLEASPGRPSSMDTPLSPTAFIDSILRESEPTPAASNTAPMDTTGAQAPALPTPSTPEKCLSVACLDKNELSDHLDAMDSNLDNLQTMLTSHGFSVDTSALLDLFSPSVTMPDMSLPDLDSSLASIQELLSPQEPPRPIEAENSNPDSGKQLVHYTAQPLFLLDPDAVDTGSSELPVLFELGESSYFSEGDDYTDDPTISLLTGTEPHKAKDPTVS

[4] = molecular target: T2, Polyadenylate-binding protein 1 (Homo sapiens, UniProt P11940); experiment: MLLE binding blockers, Cy5 peptide tracer – biochemical, fluorescence polarization, Cy5-PAM2 peptide, secondary, miRNA deadenylation inhibitor project, dose response (AID 602260); format: functional; conditions: read-out: IC50_Mean
T2 sequence (P11940 whole entry, the tested form may be a part): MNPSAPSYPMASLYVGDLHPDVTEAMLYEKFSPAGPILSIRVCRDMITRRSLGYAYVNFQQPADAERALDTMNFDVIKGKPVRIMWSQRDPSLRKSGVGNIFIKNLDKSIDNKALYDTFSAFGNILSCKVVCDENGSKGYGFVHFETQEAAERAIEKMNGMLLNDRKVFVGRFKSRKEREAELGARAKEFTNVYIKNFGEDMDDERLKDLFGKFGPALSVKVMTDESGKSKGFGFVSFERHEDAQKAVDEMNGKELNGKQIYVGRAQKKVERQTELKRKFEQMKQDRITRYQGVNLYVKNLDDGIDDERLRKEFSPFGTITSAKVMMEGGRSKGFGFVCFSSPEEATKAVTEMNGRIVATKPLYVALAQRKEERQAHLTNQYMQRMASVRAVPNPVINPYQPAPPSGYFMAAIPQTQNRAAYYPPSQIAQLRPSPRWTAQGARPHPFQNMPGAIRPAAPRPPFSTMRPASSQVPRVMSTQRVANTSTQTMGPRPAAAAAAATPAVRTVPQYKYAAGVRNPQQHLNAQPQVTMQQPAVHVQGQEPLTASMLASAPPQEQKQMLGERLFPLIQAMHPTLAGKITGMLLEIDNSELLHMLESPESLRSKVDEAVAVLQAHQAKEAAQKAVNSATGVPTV

[5] = molecular target: T2, Polyadenylate-binding protein 1; experiment: MLLE domain peptide-binding blockers, IC50 – biochemical, fluorescence polarization, FITC-PAM2 peptide, dose response (AID 602259); format: functional; conditions: read-out: IC50_Mean
Cytochrome P450 2C9 = Cytochrome P450 2C9 (Homo sapiens, UniProt P11712)
Sequence of Cytochrome P450 2C9 (P11712 whole entry): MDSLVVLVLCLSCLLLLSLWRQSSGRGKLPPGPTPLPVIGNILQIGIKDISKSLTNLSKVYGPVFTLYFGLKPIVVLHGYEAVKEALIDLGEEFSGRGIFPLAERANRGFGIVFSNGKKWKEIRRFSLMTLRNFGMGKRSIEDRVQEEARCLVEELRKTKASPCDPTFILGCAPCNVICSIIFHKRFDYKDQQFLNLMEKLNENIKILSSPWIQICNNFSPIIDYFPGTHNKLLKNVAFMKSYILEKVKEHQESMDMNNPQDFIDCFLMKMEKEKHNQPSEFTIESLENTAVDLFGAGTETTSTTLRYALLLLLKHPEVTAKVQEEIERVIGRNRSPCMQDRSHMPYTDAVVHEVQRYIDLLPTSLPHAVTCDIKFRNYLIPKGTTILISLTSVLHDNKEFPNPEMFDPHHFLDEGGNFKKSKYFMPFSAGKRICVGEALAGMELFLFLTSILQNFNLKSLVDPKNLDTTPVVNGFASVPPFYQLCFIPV

[6] = luciferase reporter signal suppression in cells – H4 neuroglioma cells, luminescence, dose response (AID 1990); format: functional, cell-based
[7] = Luminescence Cell-Based Dose Response HTS to Identify Inhibitors of 5'UTR Stem-Loop Driven Prion Protein mRNA Translation in H4 Neuroglioblastoma Cells. [Related pubchem assays: 1827 (Project Summary), 1813 (Primary HTS)]; format: functional
[8] = alpha-synuclein stem-loop luciferase translation blockers – H4 neuroglioma cells, luminescence, confirmation (AID 1988); format: functional, cell-based
[9] = Luminescence Cell-Based Dose Retest to Confirm Inhibitors of Cancer Stem Cells. [Related pubchem assays (depositor defined):AID2717, AID2721]; format: functional; conditions: Homo sapiens
Paired box protein Pax-8 = Paired box protein Pax-8 (Homo sapiens, UniProt Q06710); experiment: PAX8 transcriptional activity inhibition in RMG-I – RMG-I cells, luciferase, cherry-pick, dose response (AID 687027); format: functional, cell-based;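 note: luciferase reporter driven by Pax8 target thyroperoxidase promoter measured by SteadyGlo luminescence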
Sequence of Paired box protein Pax-8 (Q06710 whole entry): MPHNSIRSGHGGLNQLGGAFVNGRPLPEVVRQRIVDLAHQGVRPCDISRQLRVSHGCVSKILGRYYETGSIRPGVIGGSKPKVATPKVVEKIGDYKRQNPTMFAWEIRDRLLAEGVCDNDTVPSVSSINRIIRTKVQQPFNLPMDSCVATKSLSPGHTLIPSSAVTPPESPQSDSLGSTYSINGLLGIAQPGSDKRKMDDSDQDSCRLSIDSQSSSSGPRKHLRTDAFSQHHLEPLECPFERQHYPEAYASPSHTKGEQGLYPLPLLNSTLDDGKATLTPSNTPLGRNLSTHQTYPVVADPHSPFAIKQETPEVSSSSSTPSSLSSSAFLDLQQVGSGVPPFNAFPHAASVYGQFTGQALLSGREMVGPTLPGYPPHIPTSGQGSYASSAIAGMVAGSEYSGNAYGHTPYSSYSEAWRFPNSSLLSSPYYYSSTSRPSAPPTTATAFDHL

Sequence of Luciferin 4-monooxygenase (P08659 whole entry): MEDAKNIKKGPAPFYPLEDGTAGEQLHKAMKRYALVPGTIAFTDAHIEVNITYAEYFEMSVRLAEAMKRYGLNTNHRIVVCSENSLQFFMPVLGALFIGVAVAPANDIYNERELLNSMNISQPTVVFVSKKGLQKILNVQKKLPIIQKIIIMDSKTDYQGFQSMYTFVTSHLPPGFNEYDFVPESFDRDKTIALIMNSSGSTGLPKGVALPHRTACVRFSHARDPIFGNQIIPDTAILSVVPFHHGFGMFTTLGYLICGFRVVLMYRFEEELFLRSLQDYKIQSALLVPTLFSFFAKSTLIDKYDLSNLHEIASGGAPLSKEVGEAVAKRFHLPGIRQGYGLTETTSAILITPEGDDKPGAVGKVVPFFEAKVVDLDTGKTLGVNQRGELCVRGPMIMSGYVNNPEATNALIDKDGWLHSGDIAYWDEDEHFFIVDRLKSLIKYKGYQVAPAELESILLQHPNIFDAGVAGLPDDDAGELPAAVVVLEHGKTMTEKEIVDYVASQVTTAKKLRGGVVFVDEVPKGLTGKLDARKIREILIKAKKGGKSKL

Structure (SMILES): CC(=O)C1C(c2ccc(Cl)cc2)NC(=O)NC1(O)C(F)(F)F (stereo not drawn)
- EC50 [1]: > 112 µM (not active)
- EC50 [2]: > 112 µM (not active)

Structure (SMILES): COc1ccc(OCC(=O)N2CCN(c3cccc(C(F)(F)F)c3)CC2)cc1
- EC50 [3]: > 195 µM (not active)

Structure (SMILES): Cc1c(C(=O)N2CCCC2)sc(NC(=O)c2cccc(Cl)c2)c1C#N
- EC50 [1]: > 112 µM (not active)
- EC50 [2]: > 112 µM (not active)

Structure (SMILES): CC1CC(C)(C)NC(=S)S1 (stereo not drawn)
- IC50 [4]: > 66 µM (inactive)
- IC50 [5]: > 66 µM (inactive)

Structure (SMILES): O=C(c1ccccc1)N(CCO)Cc1cc2cc3c(cc2nc1O)OCCO3
- IC50 [4]: > 66 µM (inactive)
- IC50 [5]: > 66 µM (inactive)

Structure (SMILES): Oc1ccc[n+](CCCCC[n+]2cccc(O)c2)c1
- EC50 [1]: > 112 µM (not active)
- EC50 [2]: 19 µM (active)

Structure (SMILES): Cc1cc(C#N)c2ccccc2n1
- EC50 [1]: > 112 µM (not active)
- EC50 [2]: > 112 µM (not active)

Structure (SMILES): O=C(Cc1ccc2c(c1)CCCC2)Nc1ccccc1Br
- IC50 [4]: > 66 µM (inactive)
- IC50 [5]: > 66 µM (inactive)
- AC50 (Cytochrome P450 2C9): 15.8 µM (inconclusive)

Structure (SMILES): Cc1cccc(CC(=O)N2CCN=C2SCc2ccc([N+](=O)[O-])cc2)c1
- IC50 [4]: > 66 µM (inactive)
- IC50 [5]: > 66 µM (inactive)

Structure (SMILES): COc1ccc(Cl)cc1NC(=O)Nc1cc(C)on1
- EC50 [1]: > 112 µM (not active)
- EC50 [2]: > 112 µM (not active)

Structure (SMILES): CC(=O)Nc1c(I)c(NC(C)=O)c(I)c(C(=O)O)c1I [DIATRIZOATE MEGLUMINE]
- EC50 [3]: > 195 µM (not active)

Structure (SMILES): Cc1ccc(S(=O)(=O)N2CCCC(C(=O)NCCc3ccc4c(c3)OCO4)C2)cc1 (stereo not drawn)
- EC50 [3]: > 195 µM (not active)

Structure (SMILES): COc1ccc(C(=S)N2CCN(c3ccccc3C)CC2)cc1
- IC50 [4]: > 66 µM (inactive)
- IC50 [5]: > 66 µM (inactive)

Structure (SMILES): Cc1ccccc1OCC(=O)Nc1ccc2c(c1)C(=O)N(CCC(=O)O)C2=O
- EC50 [3]: 32.6 µM (active)

Structure (SMILES): c1csc(-c2nnsc2-c2nc3ccccc3[nH]2)c1
- EC50 [3]: > 195 µM (not active)

Structure (SMILES): Cc1nnc2nc(SCC(=O)NC3CCCCC3)n(-c3ccc(Br)cc3)c(N)c1-2
- EC50 [6]: 14.6 µM (active)
- EC50 [7]: 13.9 µM (active)
- EC50 [8]: 9.53 µM (active)
- AC50 [9]: 9.82 µM (active)
- AC50 (Paired box protein Pax-8): 8.51 µM (active)

Structure (SMILES): Cc1cccc(NC2(C(F)(F)F)N=C3SCCN3C2=O)n1 (stereo not drawn)
- IC50 [4]: > 66 µM (inactive)
- IC50 [5]: > 66 µM (inactive)

Structure (SMILES): Cc1ccc(-n2c(C)cc3c2CCCC3=O)cc1
- IC50 [4]: > 66 µM (inactive)
- IC50 [5]: 41.2 µM (inactive)

Structure (SMILES): COc1cccc(S(=O)(=O)N(C)C[C@H]2OCc3ccccc3-c3c(n(C)c4ccccc34)C(=O)N([C@@H](C)CO)C[C@H]2C)c1
- AC50 (Paired box protein Pax-8): 6.16 µM (active)

Structure (SMILES): COCCn1c(SCC(=O)NCC2CCCO2)nc2c(c1=O)SCC2 (stereo not drawn)
- IC50 [4]: > 66 µM (inactive)
- IC50 [5]: > 66 µM (inactive)

Structure (SMILES): OCCNc1nc2nonc2nc1NCCO
- EC50 [3]: > 195 µM (not active)

Structure (SMILES): CC(C)c1nnc(SCC(=O)NCCC2=CCCCC2)n1N
- IC50 [4]: > 66 µM (inactive)
- IC50 [5]: > 66 µM (inactive)

Structure (SMILES): O=C(CSc1ccc2nnc(-c3ccccc3)n2n1)N1CCCCC1
- IC50 [4]: > 66 µM (inactive)
- IC50 [5]: > 66 µM (inactive)

Structure (SMILES): COc1ccc(C(=O)NC(=S)NCCO)cc1Br
- EC50 [3]: > 195 µM (not active)

Structure (SMILES): COc1cc(NC(=O)CSc2nnnn2-c2ccccc2)cc(OC)c1OC
- EC50 [3]: > 195 µM (not active)

Structure (SMILES): O=C1OC(NC(=O)c2ccccc2)C(n2cc(CO)nn2)=C1Cl (stereo not drawn)
- EC50 [3]: 35.7 µM (active)

Structure (SMILES): C[C@H](CO)N1C[C@H](C)[C@@H](CN(C)CC2CCCCC2)Oc2ccc(NC(=O)Nc3ccc4c(c3)OCO4)cc2CC1=O
- AC50 (Paired box protein Pax-8): 11 µM (active)

Structure (SMILES): Cc1cc(C)cc(NC(S)=Nc2ccc(Cl)c(Cl)c2)c1
- IC50 [4]: > 66 µM (inactive)
- IC50 [5]: > 66 µM (inactive)

Structure (SMILES): CCOC(=O)C1(Cc2ccc(OC)cc2)CCN(C(=O)c2csc(C)n2)CC1
- EC50 [3]: > 195 µM (not active)

Structure (SMILES): CC1(Cc2ccc(OC(F)(F)F)cc2)C(=O)Nc2ccc(S(=O)(=O)NC3CCCCC3)cc21 (stereo not drawn)
- AC50 (Paired box protein Pax-8): 9.35 µM (active)

Structure (SMILES): Cc1cc(NC(=O)CSc2nccn2-c2cccc(Cl)c2)no1
- IC50 [4]: > 66 µM (inactive)
- IC50 [5]: > 66 µM (inactive)
